Assay results from US20100034874A1, “LIPOSOME ENCAPSULATING AMMINE-PLATINUM COMPLEX AT HIGH CONCENTRATION, AND METHOD FOR PRODUCTION OF THE LIPOSOME” (KATAYAMA CHEMICAL INDUSTRIES CO., LTD., priority 2006, published 2010).

Columns and labels:
Solubility in water = assay type: physicochemical
Protocol: For example, in the case of cisplatin, the solubility of cisplatin in water is 2 mg/ml (room temperature). The solubility of cisplatin nitrate is 20 mg/ml. Namely, cisplatin can be used as a platinum complex in an amount of not less than its solubility (room temperature). Ionic species forming a water-soluble or a poorly water-soluble salt with the platinum complex such as cisplatin are known in the art or can be selected properly, and thus, even if the platinum complex is that other than cisplatin, it is possible to select a platinum complex properly by considering its solubility, similarly to cisplatin. In this case, it is possible to form nitrates similarly, by adjusting the equivalent amount of silver nitrate added. In addition, concentrations of a bromide ion and an iodide ion are the same as the concentration of a chloride ion respectively; therefore, with any of these ions, the present invention can be carried out without problems. This is because the bromide ion or the iodide ion, which are higher in binding property than the chloride ion, can form a poorly water-soluble substance similarly, even when the present invention is carried out under the same conditions. Since it is believed that there is no difference in liposomal membrane permeability of each ion, the present invention can be carried out by taking these elements into consideration similarly.

[1] = Conversion of cis-diamine dinitratoplatinum (II) to cis-diamine dichloroplatinum (II) in 150 mM sodium chloride (UV absorption spectrum); assay type: physicochemical
Protocol: Five mg/ml of cis-diamine dinitratoplatinum (II) was dissolved in a TAPS buffer solution containing 150 mM of sodium chloride (pH: 8.4); the solution was stationarily placed at 25° C.; and the UV spectrum of the solution was determined over time (0 minute, 5 minutes, 10 minutes, 15 minutes, 30 minutes and 45 minutes). One mg of cis-diamine dichloroplatinum (II) was dissolved in 1 ml of sodium chloride-containing TAPS buffer solution, to give a control, and the UV spectrum thereof was obtained. […] There was no change in UV spectrum, when the sample was stored without movement for 45 minutes or more. […] This probably occurs because the presence of NaCl leads to the conversion of cis-diamine dinitratoplatinum (II) to the hardly water-soluble cis-diamine dichloroplatinum (II) and the subsequent precipitation of the latter.
Replacement of the nitrate ion of cis-diammine dinitratoplatinum (II) with the chloride ion in the 150 mM sodium chloride solution was studied by absorption spectroscopic method (Comparative Example 1 and FIGS. 4A and 4B).

[2] = cited from earlier work
[3] = system: Ehrlich ascites cancer cells (EAT cells) tumor; assay: Accumulation at cancerous site: platinum content in removed tumor by FAAS; assay type: in vivo, mouse (Balb/c); conditions: 1.7 mg/kg body weight, caudal vein, n=1
Protocol: 1×10^6 Ehrlich ascites cancer cells (EAT cells) (ATCC Number: CCl^−77TME (Ehrlich-Letter ascites)) were transplanted subcutaneously into the right femoral region of a 6-week old mouse (Balb/c, female) (n=1) and the following test was performed after 10 days. A cis-diamine dichloroplatinum (II)-containing sialyl Lewis X-modified liposome and a control of pure cis-diamine dichloroplatinum (II) were administered respectively into the caudal vein of a mouse in an amount of 150 μl, i.e. 1.7 mg/kg body weight (226 μg/ml). The resulting tumor was removed, 48 and 96 hours after administration. 0.1 g of the removed tumor tissue (0.2 to 1.0 g) was added to 1 ml of conc. nitric acid, and the mixture was agitated for 5 minutes. After static storage for 1 hour, the mixture was heated at […] in a water bath and then cooled to room temperature. 300 μl of distilled water was added to 100 μl of the nitric 5 acid-treated solution. The content of platinum therein was determined by flameless atomic absorption spectroscopy (FAAS: AA-6700 Atomic absorption flame emission spectrophotometer SIMAZU), and the platinum contents in 1 g of tumor were compared between the sample and the control. […]

[4] = system: Ehrlich ascites cancer cells (EAT cells); assay: Tumor proliferation-inhibiting activity (tumor volume); assay type: in vivo, mouse (Balb/c); conditions: 1.5 mg/kg caudal vein on days 5, 12, 19, n=3
Protocol: 1×10^6 Ehrlich ascites cancer cells (EAT cells) (ATCC Number: CCl^−77TME (Ehrlich-Letter ascites)) were transplanted subcutaneously into right femoral region of 6-week old mice (Balb/c, female) (n=3), and the following tests were performed after 10 days. The cis-diamine dichloroplatinum (II)-containing sialyl Lewis X-modified liposome and the anti-E-selectin antibody-modified liposome were administered into the caudal vein of a mouse respectively in an amount of 1.5 mg/kg (200 μg/ml) on the 5th, 12th, and 19th days after transplantation. As a control, cis-diamine dichloroplatinum (II) was dissolved in physiological saline to a concentration of 200 μg/ml. The dissolved solution was administered similarly.
The size, length (A mm) and diameter (B mm), of the tumor was determined by using a digital vernier caliper (Mitsutoyo CD-S15C) on the 12th, 19th, and 29th days after tumor transplantation. The volume of the tumor (mm^3) was calculated by the following Formula: (A×B^2)×0.4.

[5] = system: Ehrlich ascites cancer cells (EAT cells); assay: Cell proliferation-inhibiting activity (MTT assay, WST-8 reagent); assay type: cell-based; conditions: 48 hours, no sample 0.480, n=3
Protocol: Ehrlich ascites cancer cells (EAT cells) (ATCC Number: CCl^−77TME (Ehrlich-Letter ascites)) were inoculated at 1×10^3 cell/100 μl/well (Falcon3072), and a sample was added after culture for 24 hours. The samples were prepared by diluting the cis-diamine dichloroplatinum (II)-containing unmodified liposome, the cis-diamine dichloroplatinum (II)-containing sialyl Lewis X liposome, and the cis-diamine dichloroplatinum (II)-containing anti-E-selectin antibody-modified liposome, with DMEM buffer solution (Dulbeccos's Ham Modified Eagle liquid medium, low glucose SIGMA D6046)/10% FBS (fetal calf serum SIGMA F0926)/penicillin 100 unit/ml-streptomycin 100 μg/ml (antibiotic antimycotic solution, stabilized SIGMA A5955)) to a cis-diamine dichloroplatinum (II) amount of 10 μg/ml. […] The cell count, 48 hours after addition was determined by the MTT assay of using the formazan amount as an indicator.
In addition, a solution containing only added DMEM/10% FBS was analyzed by the MTT assay as a control containing no sample.
A cell count-measuring reagent WST-8 (Kishida Chemical) was added to each well in an amount of 20 μl, and the absorbance thereof at 450 nm was determined after 2 hours. The absorbance was determined by using GE Healthcare Ultrospec-6300. […]

Compound: [NH2][Pt]([NH2])([O][N+](=O)[O-])[O][N+](=O)[O-] [CDDP-3, cis-diammine dinitratoplatinum (II)]
- solubility in water relative to cis-diamine dichloroplatinum (II) (Solubility in water): approximately 10 times
- time for conversion to cis-diamine dichloroplatinum (II) ([1]; TAPS containing 150 mM NaCl, pH 8.4, 25° C., 5 mg/ml): 45 min
- fraction converted to cis-diamine dichloroplatinum (II) ([1]; in the presence of 150 mM sodium chloride): ≥ 99%
- solubility of cisplatin nitrate [2]: 20 mg/mL

Compound: N.N.[Cl][Pt][Cl] [Cisplatin, cis-diammine dichloroplatinum (II)]
- Platinum concentration (ng/g tissue) in tumor ([3]; 48 hours after administration): 361 ng/g tissue
- Platinum concentration (ng/g tissue) in tumor ([3]; 96 hours after administration): 49 ng/g tissue
- Average tumor volume ([4]; Day 12 after tumor transplantation): 63 mm^3
- Average tumor volume ([4]; Day 19 after tumor transplantation): 63 mm^3
- Average tumor volume ([4]; Day 29 after tumor transplantation): 501 mm^3
- Average absorbance (450 nm) ([5]; sample final concentration 8.30 μM): 0.045
- Average absorbance (450 nm) ([5]; sample final concentration 16.60 μM): 0.027
